Among the data in paper PMC3382171 (PLoS ONE, 2012) are inhibition values, retold here.

Assay in all cases: biochemical
What all share (set-up): Invitrogen SelectScreen kinase panel, percent inhibition at 1 uM, ATP at Km
Holding throughout (conditions): read-out: Invitrogen KSS %Inh at 1 µM

In assay [1] the target is CSF1R (FMS) (Homo sapiens, UniProt P07333). As to the method: (§1) The METi and RAFi were screened against kinase panels (SelectScreen, Invitrogen; University of Dundee, Division of Signal Transduction Therapy, UK; Upstate Biotechnology/Millipore, Billerica, MA). In these selectivity assays the concentration of ATP was set to the Km value of ATP for each kinase tested to allow for a relative potency comparison between the various kinases. The compounds were tested at 1 µM final concentration. […] Supplementary file pone.0039653.s002.pdf: Figure S2 Kinase Selectivity Screen of RAFi. (A) Kinase selectivity screen (KSS) performed at University of Dundee (Division of Signal Transduction Therapy). Values in % inhibition of phosphorylation given 1 µM of RAFi compared to control. (B) KSS performed at Invitrogen (Selectscreen Service) compared to control. Values in % inhibition of phosphorylation given 1 µM of RAFi. (C) Cell based dose response kinase inhibition of indicated kinases by RAFi. (PDF) Click here for additional data file.

The target in assay [2] is FYN (Homo sapiens, UniProt P06241). How it is done:
as §1

The target in assay [3] is ALK (Homo sapiens, UniProt Q9UM73). How it is done:
as §1

Assay [4] deals with ROS1 (Homo sapiens, UniProt P08922). As to the method:
as §1

For assay [5], the target named is ERBB2 (HER2) (Homo sapiens, UniProt P04626). As to the method:
as §1

The target of assay [6] is MAPK3 (ERK1) (Homo sapiens, UniProt P27361). How it is done: as §1
For assay [7], the target named is FGFR1 (Homo sapiens, UniProt P11362). How it is done: as §1
In assay [8] the target is JAK3 (Homo sapiens, UniProt P52333). As to the method:
as §1

Assay [9] deals with PAK2 (PAK65) (Homo sapiens, UniProt Q13177). As to the method:
as §1

The target in assay [10] is BTK (Homo sapiens, UniProt Q06187). How it is done:
as §1

The target in assay [11] is PRKD2 (PKD2) (Homo sapiens, UniProt Q9BZL6). As to the method: as §1
Assay [12] addresses RET (Homo sapiens, UniProt P07949). How it is done: as §1
For assay [13], the target named is EGFR (ErbB1) L861Q (Homo sapiens, UniProt P00533, L861Q). As to the method: as §1
For assay [14], the target named is HCK (Homo sapiens, UniProt P08631). How it is done: as §1
For assay [15], the target named is T1, PDK1 (Homo sapiens, UniProt O15530).
T1 construct: gene PDPK1
How it is done: as §1

Assay [16] has as its target ITK (Homo sapiens, UniProt Q08881). How it is done: as §1
Assay [17] concerns the target STK3 (MST2) (Homo sapiens, UniProt Q13188). As to the method: as §1
The target of assay [18] is EEF2K (Homo sapiens, UniProt O00418). How it is done:
as §1

In assay [19] the target is RPS6KA4 (MSK2) (Homo sapiens, UniProt O75676). As to the method:
as §1

In assay [20] the target is PAK4 (Homo sapiens, UniProt O96013). As to the method: as §1
Assay [21] concerns the target ABL1 (Homo sapiens, UniProt P00519). How it is done:
as §1

Assay [22] has as its target MAP3K8 (COT) (Homo sapiens, UniProt P41279). As to the method:
as §1

Assay [23] has as its target HIPK4 (Homo sapiens, UniProt Q8NE63). How it is done: as §1

Chain of MAPK3 (ERK1) (P27361 whole entry): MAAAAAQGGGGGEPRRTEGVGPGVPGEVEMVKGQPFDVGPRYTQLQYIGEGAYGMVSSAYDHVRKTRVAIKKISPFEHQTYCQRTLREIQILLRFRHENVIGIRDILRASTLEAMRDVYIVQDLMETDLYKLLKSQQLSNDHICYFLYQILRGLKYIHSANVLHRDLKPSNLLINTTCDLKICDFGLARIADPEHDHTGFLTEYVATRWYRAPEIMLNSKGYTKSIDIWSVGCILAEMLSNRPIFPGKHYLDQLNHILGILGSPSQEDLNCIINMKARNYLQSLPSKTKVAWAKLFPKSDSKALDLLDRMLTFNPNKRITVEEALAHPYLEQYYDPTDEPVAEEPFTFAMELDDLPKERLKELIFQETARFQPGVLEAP
Chain of PRKD2 (PKD2) (Q9BZL6 whole entry): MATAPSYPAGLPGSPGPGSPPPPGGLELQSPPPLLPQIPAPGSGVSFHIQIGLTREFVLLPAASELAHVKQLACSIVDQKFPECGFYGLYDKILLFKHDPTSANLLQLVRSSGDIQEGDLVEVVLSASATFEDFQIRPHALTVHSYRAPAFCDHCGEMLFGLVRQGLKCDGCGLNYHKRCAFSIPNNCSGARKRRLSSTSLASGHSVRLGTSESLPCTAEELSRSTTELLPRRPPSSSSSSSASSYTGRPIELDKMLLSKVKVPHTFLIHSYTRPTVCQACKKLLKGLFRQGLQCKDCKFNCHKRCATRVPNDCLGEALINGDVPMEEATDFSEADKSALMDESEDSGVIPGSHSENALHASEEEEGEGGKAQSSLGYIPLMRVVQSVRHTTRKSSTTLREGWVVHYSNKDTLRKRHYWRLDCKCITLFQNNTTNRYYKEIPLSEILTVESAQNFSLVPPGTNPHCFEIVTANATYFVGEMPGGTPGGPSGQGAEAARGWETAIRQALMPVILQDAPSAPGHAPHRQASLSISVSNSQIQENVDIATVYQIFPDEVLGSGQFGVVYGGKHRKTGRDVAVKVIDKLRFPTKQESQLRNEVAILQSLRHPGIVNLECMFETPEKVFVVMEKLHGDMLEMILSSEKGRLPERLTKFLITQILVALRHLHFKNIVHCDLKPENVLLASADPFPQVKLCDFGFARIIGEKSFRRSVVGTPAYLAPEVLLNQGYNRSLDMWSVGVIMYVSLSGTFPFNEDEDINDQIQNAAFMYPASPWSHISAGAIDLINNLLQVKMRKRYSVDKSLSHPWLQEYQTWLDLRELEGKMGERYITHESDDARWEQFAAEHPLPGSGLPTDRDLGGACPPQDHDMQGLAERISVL
Chain of HIPK4 (Q8NE63 whole entry): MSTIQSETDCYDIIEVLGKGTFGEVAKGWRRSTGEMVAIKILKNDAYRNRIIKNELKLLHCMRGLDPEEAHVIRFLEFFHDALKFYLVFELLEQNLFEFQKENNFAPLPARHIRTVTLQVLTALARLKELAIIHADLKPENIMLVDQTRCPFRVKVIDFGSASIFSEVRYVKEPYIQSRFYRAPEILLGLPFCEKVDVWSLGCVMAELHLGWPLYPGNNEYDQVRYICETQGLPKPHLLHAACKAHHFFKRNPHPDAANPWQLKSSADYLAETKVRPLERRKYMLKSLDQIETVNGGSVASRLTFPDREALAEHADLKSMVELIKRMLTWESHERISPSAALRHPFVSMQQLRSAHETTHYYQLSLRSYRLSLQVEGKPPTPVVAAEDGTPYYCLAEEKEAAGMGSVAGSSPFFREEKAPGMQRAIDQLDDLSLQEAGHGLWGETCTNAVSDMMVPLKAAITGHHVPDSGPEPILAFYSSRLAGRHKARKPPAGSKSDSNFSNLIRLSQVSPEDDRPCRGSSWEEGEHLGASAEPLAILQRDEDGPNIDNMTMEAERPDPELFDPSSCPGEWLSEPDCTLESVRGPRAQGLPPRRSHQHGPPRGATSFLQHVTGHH
Chain of JAK3 (P52333 whole entry): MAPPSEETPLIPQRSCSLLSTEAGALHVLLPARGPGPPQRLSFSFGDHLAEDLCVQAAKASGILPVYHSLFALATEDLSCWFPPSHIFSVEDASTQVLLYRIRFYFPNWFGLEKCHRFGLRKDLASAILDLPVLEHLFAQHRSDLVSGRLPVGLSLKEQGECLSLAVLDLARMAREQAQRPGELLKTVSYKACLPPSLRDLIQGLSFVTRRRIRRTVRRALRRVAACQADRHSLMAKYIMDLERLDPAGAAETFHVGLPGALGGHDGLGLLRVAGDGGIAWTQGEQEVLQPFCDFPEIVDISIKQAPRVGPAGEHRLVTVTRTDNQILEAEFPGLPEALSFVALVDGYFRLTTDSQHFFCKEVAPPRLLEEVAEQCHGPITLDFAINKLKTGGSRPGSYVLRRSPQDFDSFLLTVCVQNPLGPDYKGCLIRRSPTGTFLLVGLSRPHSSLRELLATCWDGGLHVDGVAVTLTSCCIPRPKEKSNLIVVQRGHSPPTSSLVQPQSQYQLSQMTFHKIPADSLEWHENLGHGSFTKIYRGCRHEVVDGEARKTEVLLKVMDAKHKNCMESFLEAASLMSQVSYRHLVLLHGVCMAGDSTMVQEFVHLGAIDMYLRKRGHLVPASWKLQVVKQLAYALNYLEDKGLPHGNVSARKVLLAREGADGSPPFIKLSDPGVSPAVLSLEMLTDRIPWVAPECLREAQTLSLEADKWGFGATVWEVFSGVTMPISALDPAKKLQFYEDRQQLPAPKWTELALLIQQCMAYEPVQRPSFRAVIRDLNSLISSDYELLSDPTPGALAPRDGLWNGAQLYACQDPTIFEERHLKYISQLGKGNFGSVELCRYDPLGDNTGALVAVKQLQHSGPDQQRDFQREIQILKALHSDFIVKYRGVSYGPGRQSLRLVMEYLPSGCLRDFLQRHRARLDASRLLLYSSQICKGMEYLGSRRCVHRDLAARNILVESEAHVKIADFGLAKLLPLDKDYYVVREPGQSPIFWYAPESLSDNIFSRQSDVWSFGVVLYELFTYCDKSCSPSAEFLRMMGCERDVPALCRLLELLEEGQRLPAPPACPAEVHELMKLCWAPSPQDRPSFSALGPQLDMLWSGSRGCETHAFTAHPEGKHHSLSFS
Chain of EEF2K (O00418 whole entry): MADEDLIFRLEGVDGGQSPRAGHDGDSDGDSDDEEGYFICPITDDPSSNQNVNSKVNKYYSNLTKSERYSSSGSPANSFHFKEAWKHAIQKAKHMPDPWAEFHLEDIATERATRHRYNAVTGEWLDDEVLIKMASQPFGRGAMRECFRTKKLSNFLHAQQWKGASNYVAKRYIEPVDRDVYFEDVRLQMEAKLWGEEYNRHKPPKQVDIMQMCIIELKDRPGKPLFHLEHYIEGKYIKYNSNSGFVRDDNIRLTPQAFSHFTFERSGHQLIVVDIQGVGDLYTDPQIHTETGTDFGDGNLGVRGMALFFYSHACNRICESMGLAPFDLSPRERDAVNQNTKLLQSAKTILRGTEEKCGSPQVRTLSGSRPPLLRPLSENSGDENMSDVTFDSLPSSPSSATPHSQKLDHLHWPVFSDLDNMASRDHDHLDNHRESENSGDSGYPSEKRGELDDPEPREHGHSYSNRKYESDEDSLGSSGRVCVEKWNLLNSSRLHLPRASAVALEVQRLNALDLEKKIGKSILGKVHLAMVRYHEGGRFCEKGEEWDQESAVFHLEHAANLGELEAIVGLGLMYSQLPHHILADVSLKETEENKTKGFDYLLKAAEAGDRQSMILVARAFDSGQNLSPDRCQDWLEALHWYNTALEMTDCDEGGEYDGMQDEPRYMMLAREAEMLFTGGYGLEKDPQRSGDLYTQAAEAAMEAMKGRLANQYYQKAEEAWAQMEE
Chain of ABL1 (P00519 whole entry): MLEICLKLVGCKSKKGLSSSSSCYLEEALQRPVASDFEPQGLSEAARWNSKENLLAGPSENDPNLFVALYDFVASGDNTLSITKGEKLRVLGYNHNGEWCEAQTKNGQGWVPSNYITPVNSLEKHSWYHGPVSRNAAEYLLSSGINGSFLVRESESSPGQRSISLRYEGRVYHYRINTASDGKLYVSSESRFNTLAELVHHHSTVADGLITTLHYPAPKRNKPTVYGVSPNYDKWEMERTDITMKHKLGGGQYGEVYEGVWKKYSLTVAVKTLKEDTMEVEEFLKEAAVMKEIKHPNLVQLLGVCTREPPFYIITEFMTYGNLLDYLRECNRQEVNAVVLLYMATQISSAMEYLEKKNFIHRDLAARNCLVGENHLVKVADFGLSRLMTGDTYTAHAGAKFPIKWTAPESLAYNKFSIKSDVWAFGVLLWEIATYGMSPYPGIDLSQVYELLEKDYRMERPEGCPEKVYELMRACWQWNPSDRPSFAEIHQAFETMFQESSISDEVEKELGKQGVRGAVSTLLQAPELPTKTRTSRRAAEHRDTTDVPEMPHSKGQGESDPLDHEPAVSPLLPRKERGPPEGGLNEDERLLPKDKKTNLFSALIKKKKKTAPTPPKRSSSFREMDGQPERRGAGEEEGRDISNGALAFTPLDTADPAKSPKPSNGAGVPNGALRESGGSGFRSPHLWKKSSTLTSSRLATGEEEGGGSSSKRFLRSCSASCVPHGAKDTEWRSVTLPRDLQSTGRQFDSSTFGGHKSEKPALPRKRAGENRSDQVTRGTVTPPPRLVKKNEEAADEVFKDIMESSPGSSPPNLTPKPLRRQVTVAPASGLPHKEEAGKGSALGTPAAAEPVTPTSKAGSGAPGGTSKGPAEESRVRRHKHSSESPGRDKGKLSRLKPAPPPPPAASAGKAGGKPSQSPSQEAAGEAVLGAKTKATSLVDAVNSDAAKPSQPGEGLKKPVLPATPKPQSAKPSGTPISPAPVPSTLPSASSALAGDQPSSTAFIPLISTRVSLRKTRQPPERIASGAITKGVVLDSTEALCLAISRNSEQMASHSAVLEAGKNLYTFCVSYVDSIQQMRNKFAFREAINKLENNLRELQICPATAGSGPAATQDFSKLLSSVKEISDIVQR

Turning to `N#CCCNc1nccc(-c2cn(CC(F)F)nc2-c2cnc3[nH]ccc3c2)n1` [RAFi, PF-04880594], the inhibition at 1 µM in assay [1] is 33%; in assay [2], -4%; in assay [3], 23%; in assay [4], 11%; in assay [5], 10%; in [6], 28%. Besides, the inhibition at 1 µM in [7] was 1%; in assay [8] it was 9%; in assay [9] it was 3%; in assay [10], -7%; in assay [11] it was 40%; in assay [12] it was 12%. For the same molecule, the inhibition at 1 µM in [13] worked out at 5%; in assay [14], 5%; in assay [15], 13%; in assay [16], 0%; in assay [17] it was 9%; in assay [18], 14%. For the same molecule, the inhibition at 1 µM in [19] was 5%; in assay [20], 1%; in assay [21] it was 6%; in assay [22], 24%; in assay [23], 8%.
